Assay results reported in ChEMBL document CHEMBL5247642, “Structural Optimization of Fibroblast Growth Factor Receptor Inhibitors for Treating Solid Tumors” (J Med Chem, 2023).
≈ marks a conversion by molar mass, not a printed value. Calls of active or inactive are those of the source. The calls are words filed in the database; no cut-off is given here.

Experiments:
[1] = AUC (0 to t) in CD-1 mouse at 3 mg/kg, po measured after 24 hrs by LC-MS/MS analysis; type: ADME, organism-based; design: time 24 hrs, dose 3 mg/kg, route po; details: in vivo
[2] = Tmax in CD-1 mouse at 3 mg/kg, po measured after 24 hrs by LC-MS/MS analysis; type: ADME, organism-based; details: in vivo
BaF3 = experiment: Antiproliferative activity against mouse BaF3 cells assessed as reduction in cell viability measured after 72 hrs; type: functional, cell-based; details: BaF3, 72 h
[3] = target: Fibroblast growth factor receptor 1 (Homo sapiens, UniProt P11362); details: dose 1.0 nM, time 60.0 min
NCI-H1581 [4] = experiment: Antiproliferative activity against human NCI-H1581 cells expressing FGFR1 assessed as reduction in cell viability measured after 72 hrs; type: functional, cell-based; details: NCI-H1581, 72 h
[5] = Solubility of compound in PBS at pH 7.4 at 1 to 100 microg/ml by laser nephelometry analysis; type: physicochemical; details: dose 1-100 µg/ml
NCI-H1666 = experiment: Antiproliferative activity against human NCI-H1666 cells assessed as reduction in cell viability measured after 72 hrs; type: functional, cell-based; details: NCI-H1666, 72 h
NCI-H526 = experiment: Antiproliferative activity against human NCI-H526 cells assessed as reduction in cell viability measured after 72 hrs; type: functional, cell-based; details: NCI-H526, 72 h
NCI-H716 = experiment: Antiproliferative activity against human NCI-H716 cells expressing FGFR2 assessed as reduction in cell viability measured after 72 hrs; type: functional, cell-based; details: NCI-H716, 72 h
[6] = Cmax in CD-1 mouse at 3 mg/kg, po measured after 24 hrs by LC-MS/MS analysis; type: ADME, organism-based; design: time 24 hrs, dose 3 mg/kg, route po; details: in vivo
[7] = Stability in rat whole blood assessed as parent compound remaining measured upto 5 hrs by LC-MS/MS analysis; type: ADME, tissue-based
[8] = Toxicity in nude mouse xenografted with human SNU-16 cells assessed as body weight loss at 200 to 400 mg/kg, po administered once daily for 21 days; type: organism-based; details: in vivo, 504 h, dose 200-400 mg/kg, time 21 day
SNU-16 = experiment: Antitumor activity against human SNU-16 cells xenografted in nude mouse assessed as tumor growth inhibition at 200 mg/kg, po administered once daily for 21 days by microcaliper analysis relative to control; type: functional; design: scale not given: the % may be the effect or the level left; details: time 21 day
NCI-H2228 = experiment: Antiproliferative activity against human NCI-H2228 cells assessed as reduction in cell viability measured after 72 hrs; type: functional, cell-based; details: NCI-H2228, 72 h
[9] = target: Fibroblast growth factor receptor 2 (Homo sapiens, UniProt P21802, V564F); experiment: Inhibition of FGFR2 V564F mutant (unknown origin)
PANC-1 = experiment: Antiproliferative activity against human PANC-1 cells assessed as reduction in cell viability measured after 72 hrs; type: functional, cell-based; details: PANC-1, 72 h
[10] = AUC (0 to infinity) in CD-1 mouse at 3 mg/kg, po measured after 24 hrs by LC-MS/MS analysis; type: ADME, organism-based; design: time 24 hrs, dose 3 mg/kg, route po; details: in vivo
PC-9 = experiment: Antiproliferative activity against human PC-9 cells assessed as reduction in cell viability measured after 72 hrs; type: functional, cell-based; details: PC-9, 72 h
[11] = target: Fibroblast growth factor receptor 2 (Homo sapiens, UniProt P21802, N549H); experiment: Inhibition of human recombinant FGFR2 N549H mutant (456 to 770 residues) using GGEEEEYFELVKK as substrate incubated for 40 mins presence of [gamma-33P]-ATP by radiometric based scintillation counter assay
NCI-H1581 [12] = experiment: Antitumor activity against human NCI-H1581 cells xenografted in nude mouse assessed as tumor growth inhibition at 400 mg/kg, po administered once daily for 11 days by microcaliper analysis; type: functional, organism-based; details: time 11.0 day
[13] = target: Fibroblast growth factor receptor 1 (Homo sapiens, UniProt P11362, V561M); experiment: Inhibition of human recombinant FGFR1 V561M mutant (456 to 765 residues) using GGEEEEYFELVKK as substrate incubated for 40 mins presence of [gamma-33P]-ATP by radiometric based scintillation counter assay
[14] = target: Fibroblast growth factor receptor 4 (Homo sapiens, UniProt P22455); experiment: Inhibition of FGFR4 (unknown origin)
BXPC-3 = experiment: Antiproliferative activity against human BXPC-3 cells assessed as reduction in cell viability measured after 72 hrs; type: functional, cell-based; details: BXPC-3, 72 h
NCI-H1581 [15] = experiment: Antitumor activity against human NCI-H1581 cells xenografted in po dosed nude mouse assessed as tumor growth inhibition administered once daily for 11 days by microcaliper analysis; type: functional, organism-based; details: dose 200-400 mg/kg, time 11.0 day
EBC-1 = experiment: Antiproliferative activity against human EBC-1 cells assessed as reduction in cell viability measured after 72 hrs; type: functional, cell-based; details: EBC-1, 72 h
HCC78 = experiment: Antiproliferative activity against human HCC78 cells assessed as reduction in cell viability measured after 72 hrs; type: functional, cell-based; details: HCC78, 72 h
NCI-H1299 = experiment: Antiproliferative activity against human NCI-H1299 cells assessed as reduction in cell viability measured after 72 hrs; type: functional, cell-based; details: NCI-H1299, 72 h
Hs746T = experiment: Antiproliferative activity against human Hs746T cells assessed as reduction in cell viability measured after 72 hrs; type: functional, cell-based
[16] = MRT in CD-1 mouse at 3 mg/kg, po measured after 24 hrs by LC-MS/MS analysis; type: ADME, organism-based; details: in vivo

Fibroblast growth factor receptor 1 (Homo sapiens, UniProt P11362), sequence (P11362 22-822 limits assumed): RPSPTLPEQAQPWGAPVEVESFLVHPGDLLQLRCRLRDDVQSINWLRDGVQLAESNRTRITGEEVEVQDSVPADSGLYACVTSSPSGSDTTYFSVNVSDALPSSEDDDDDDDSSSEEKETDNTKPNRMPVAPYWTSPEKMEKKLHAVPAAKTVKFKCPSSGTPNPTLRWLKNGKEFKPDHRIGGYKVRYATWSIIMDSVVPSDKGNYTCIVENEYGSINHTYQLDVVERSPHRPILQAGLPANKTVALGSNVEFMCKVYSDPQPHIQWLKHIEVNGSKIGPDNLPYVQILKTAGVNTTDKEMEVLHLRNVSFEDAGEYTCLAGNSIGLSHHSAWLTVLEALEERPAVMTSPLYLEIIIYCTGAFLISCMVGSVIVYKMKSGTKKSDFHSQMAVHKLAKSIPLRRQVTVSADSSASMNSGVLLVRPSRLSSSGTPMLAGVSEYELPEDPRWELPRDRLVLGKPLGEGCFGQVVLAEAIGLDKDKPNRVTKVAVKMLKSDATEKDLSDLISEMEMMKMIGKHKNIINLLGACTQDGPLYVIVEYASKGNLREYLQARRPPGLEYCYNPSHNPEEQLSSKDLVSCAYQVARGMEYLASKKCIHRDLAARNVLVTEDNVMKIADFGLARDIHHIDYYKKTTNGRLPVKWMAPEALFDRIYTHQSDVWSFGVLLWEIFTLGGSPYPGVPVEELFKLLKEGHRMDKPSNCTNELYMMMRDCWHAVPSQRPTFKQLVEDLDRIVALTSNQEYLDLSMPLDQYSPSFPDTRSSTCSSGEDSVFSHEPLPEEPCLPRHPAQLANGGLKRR
Fibroblast growth factor receptor 1 (Homo sapiens, UniProt P11362, V561M), sequence (P11362 22-822 V561M limits assumed): as the sequence (P11362 22-822 limits assumed) above, with V540M counted along it
Fibroblast growth factor receptor 2 (Homo sapiens, UniProt P21802, V564F), sequence (P21802 22-821 V564F limits assumed): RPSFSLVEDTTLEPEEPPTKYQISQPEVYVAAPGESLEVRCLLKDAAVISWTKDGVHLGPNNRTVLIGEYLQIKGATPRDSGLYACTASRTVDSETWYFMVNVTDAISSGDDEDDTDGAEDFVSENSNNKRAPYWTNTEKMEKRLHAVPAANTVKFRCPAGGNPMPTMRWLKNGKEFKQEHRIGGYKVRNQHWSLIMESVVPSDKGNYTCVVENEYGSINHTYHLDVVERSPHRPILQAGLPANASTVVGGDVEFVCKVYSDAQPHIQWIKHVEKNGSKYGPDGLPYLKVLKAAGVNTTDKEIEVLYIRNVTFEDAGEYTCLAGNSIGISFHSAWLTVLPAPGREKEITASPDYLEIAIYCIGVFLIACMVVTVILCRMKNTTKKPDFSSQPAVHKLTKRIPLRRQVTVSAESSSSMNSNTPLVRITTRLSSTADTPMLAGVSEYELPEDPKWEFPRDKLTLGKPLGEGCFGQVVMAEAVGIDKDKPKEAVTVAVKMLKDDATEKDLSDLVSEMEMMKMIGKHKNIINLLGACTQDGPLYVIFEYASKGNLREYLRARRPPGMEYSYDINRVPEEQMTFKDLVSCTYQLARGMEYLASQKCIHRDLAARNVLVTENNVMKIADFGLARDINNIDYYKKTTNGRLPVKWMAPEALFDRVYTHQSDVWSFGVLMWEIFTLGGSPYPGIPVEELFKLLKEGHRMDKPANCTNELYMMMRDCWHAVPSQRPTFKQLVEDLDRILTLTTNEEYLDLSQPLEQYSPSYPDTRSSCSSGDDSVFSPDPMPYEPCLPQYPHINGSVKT
Fibroblast growth factor receptor 4, sequence (P22455 whole entry): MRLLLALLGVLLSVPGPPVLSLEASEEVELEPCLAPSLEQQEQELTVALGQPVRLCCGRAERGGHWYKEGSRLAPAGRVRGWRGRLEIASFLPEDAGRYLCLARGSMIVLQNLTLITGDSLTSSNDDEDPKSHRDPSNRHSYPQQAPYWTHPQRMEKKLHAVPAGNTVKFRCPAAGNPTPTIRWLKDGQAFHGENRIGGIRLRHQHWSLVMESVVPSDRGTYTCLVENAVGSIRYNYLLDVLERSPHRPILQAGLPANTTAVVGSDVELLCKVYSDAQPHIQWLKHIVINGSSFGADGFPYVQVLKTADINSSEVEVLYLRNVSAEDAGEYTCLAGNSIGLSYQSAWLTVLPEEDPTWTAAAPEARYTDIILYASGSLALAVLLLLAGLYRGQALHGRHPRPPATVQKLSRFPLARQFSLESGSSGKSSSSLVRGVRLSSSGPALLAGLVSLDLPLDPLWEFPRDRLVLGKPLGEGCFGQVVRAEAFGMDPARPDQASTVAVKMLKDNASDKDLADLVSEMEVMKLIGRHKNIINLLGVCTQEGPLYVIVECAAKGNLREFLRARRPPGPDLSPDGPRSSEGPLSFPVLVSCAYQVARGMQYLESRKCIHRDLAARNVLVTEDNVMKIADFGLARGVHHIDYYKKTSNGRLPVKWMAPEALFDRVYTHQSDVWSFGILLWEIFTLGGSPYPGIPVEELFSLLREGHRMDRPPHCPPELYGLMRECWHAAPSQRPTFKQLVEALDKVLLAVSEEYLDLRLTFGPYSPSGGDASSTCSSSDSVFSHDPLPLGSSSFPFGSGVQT
Fibroblast growth factor receptor 2 (Homo sapiens, UniProt P21802, N549H), sequence (P21802 22-821 N549H limits assumed): as the sequence (P21802 22-821 V564F limits assumed) above, with N528H, F543V counted along it

In the case of `C=CC(=O)N1CCCC(n2nc3c(=O)[nH]nc(N)c3c2-c2oc3ccc(C)cc3c2C)C1` (centres undefined), the AUC(0-t) at 24 h [1] is reported as 70.2 ng·h/mL, the Tmax [2] is reported as 15 min and the IC50 (BaF3) is reported as > 10 µM. For the same molecule, the inhibition [3] was 37.6%, the IC50 (NCI-H1581 [4]) was 0.0549 µM and the solubility kinetic [5] was 50 µg/mL (≈ 116 µM). The IC50 (NCI-H1666) was > 10 µM, the IC50 (NCI-H526) was > 10 µM and the IC50 (NCI-H716) was 0.0032 µM. The Cmax [6] was 174 ng/mL, the Stability [7] was “Stable” and the Activity [8] was “Non-Toxic”. The Activity (SNU-16) was 68.4%, the IC50 (NCI-H2228) was > 10 µM and the IC50 [9] was 2.86 µM. For the same molecule, the IC50 (PANC-1) was > 10 µM, the AUC(0-inf) [10] was 75.4 ng·h/mL and the IC50 (PC-9) was > 10 µM. For the same molecule, the IC50 [11] was 0.016 µM, the Activity (NCI-H1581 [12]) was “Active” and the IC50 [13] was > 5 µM. For the same molecule, the IC50 [14] was 0.0061 µM, the IC50 (BXPC-3) was > 10 µM and the Activity (NCI-H1581 [15]) was “Dose-Dependent Effect”. For the same molecule, the IC50 (EBC-1) was > 10 µM, the IC50 (HCC78) was > 10 µM and the IC50 (NCI-H1299) was > 10 µM. For the same molecule, the IC50 (Hs746T) was > 10 µM and the MRT [16] was 69.6 min.
